We go through 4 molecules from article PMC7004140, “In vitro hepatotoxicity of Petasites hybridus extract (Ze 339) depends on the concentration, the cytochrome activity of the cell system, and the species used” (Phytotherapy Research, 2019).

For one data set, the system named is HepG2 cells. Kind of data set: WST-1 metabolic activity (cytotoxicity) in HepG2 cells. The class given is cell-based, human. The conditions noted are these: HepG2, up to 250 μM, 4 hr. Here is the method:
(§1) HepG2 and H‐4‐II‐E cells were differentiated for 24 hr. HepaRG cells were directly seeded in precoated 96‐well microtiter plates and were incubated in William's medium with general purpose supplements according to manufacturer's manual until adherence. All cells were treated with Ze 339 (up to 100 μg/ml) or petasin, isopetasin, neopetasin, petasol, isopetasol, petasin mixture, fatty acid mixture, and reconstituted extracts (up to 250 μM) for 4 hr.
(§2) In the three cell lines, cytotoxicity was defined as a decrease in metabolic activity of ≥20% in the WST‐1 assay. At the end of the experiment, 10 μl WST‐1 reagent was added to each well. Plates were then incubated for 2 hr to allow for the reduction of WST‐1 reagent. Absorbance was measured using a microplate absorbance reader (Infinite M 200, Tecan Trading Ltd., Switzerland) at 450 nm, reference wavelength of 620 nm. Due to some matrix effect, the lowest concentration (0.02 μg/ml for Ze 339 and 3.9 μM for single constituents and mixtures) of each substance tested was defined as 100% metabolic activity. Results were expressed as percentage of the control metabolic activity, and data were presented as mean values ± SEM (n = 3–6).
(§3) Concentration‐response analysis was done using the sigmoidal Hill equation: E(t) = E0 − Emax × C(t)^N/(IC50 ^N + C(t)^N), where E is the effect at time t, E0 the effect at baseline (time = 0), IC50 the concentration yielding 50% of the maximal effect (Emax), and N denotes the sigmoidicity coefficient (Origin 2017 Software). For statistical analysis, analysis of variance with Dunnett's multicomparison test was used to correct for multiplicity of testing (IBM SPSS Statistics software, version 25, IBM Corp., USA). The level of significance was ^* p < .05, ^** p < .01 and ^*** p < .001; NS = no significance.

The subject of data set [1] is HepaRG cells. Kind of data set: WST-1 metabolic activity (cytotoxicity) in HepaRG cells. The class given is cell-based, human. To be noted: 4 hr. Here is the method: as §1, §2, §3
The subject of a further data set is H-4-II-E cells. Kind of data set: WST-1 metabolic activity (cytotoxicity) in H-4-II-E cells. It is filed as cell-based, rat (Rattus norvegicus). Here is the method:
as §1, §2, §3

Data set [2] has as its system HepaRG cells. Kind of data set: Coincubation of Ze 339 with single cytochrome inhibitors in HepaRG cells (WST-1). To be noted: inhibitor 10 μM, Ze 339 100 μg/ml, 4 hr. It is filed as cell-based, human.
Description: To investigate whether metabolic activation by human phase I enzymes—at least in part—contributes to the cytotoxic effect, Ze 339 (concentrations up to 100 μg/ml) was coincubated in HepaRG cells for 4 hr with different single cytochromes inhibitors: ketoconazole (CYP3A4), sulfaphenazole (CYP2C9), montelukast (CYP2C8), omeprazole (CYP2C19), α‐naphthoflavone (CYP1A2), quinidine (CYP2D6), xanthotoxin (CYP2A6), chlormethiazole (CYP2E1), and ticlopidine (CYP2B6)—(each at a concentration of 10 μM). Inhibition of metabolic activity was evaluated with the WST‐1 assay using Ze 339 without inhibitor as a control.

Structures are written as SMILES.

Consider `C=C(C)[C@@H]1C[C@@]2(C)C(=CC1=O)CC[C@@H](O)[C@@H]2C` [petasol], for which, in the data set with HepG2 cells, the cytotoxic effects entry was “did not show cytotoxic effects”. Also, the results for the metabolic activity with HepaRG cells [1] (250 μM) and in the data set on H-4-II-E cells (concentrations ≥125 μM) were 68.6% and “up to 109%”, respectively. Moreover, the “change in metabolic activity” value in the data set on H-4-II-E cells (medium concentrations 15.6–62.5 μM) is recorded as “slight decrease”.

As to `C=C[C@H]1C[N@@]2CC[C@H]1C[C@@H]2[C@@H](O)c1ccnc2ccc(OC)cc12` [quinidine], the “effect of cytochrome inhibitor on the cytotoxic effect of Ze 339” value in the data set with HepaRG cells [2] was “attenuated”.

For `CC(C)(O)c1ccccc1CC[C@@H](SCC1(CC(=O)O)CC1)c1cccc(/C=C/c2ccc3ccc(Cl)cc3n2)c1` [montelukast], the “effect of cytochrome inhibitor on the cytotoxic effect of Ze 339” value with HepaRG cells [2] is “attenuated”.

For `CC(C)=C1C[C@@]2(C)C(=CC1=O)CC[C@@H](O)[C@@H]2C` [isopetasol], the cytotoxic effects result in the data set on HepG2 cells was “did not show cytotoxic effects”. Moreover, the cytotoxicity result in the data set on HepaRG cells [1] (highest concentration) was “not cytotoxic”. Besides, the figures for the “change in metabolic activity” value in the data set on H-4-II-E cells (from 7.8 to 125 μM) and with H-4-II-E cells (highest concentration) were “increase in metabolic activity” and “virtually no change”, respectively.
